These compounds were tested against T1, Broad substrate specificity ATP-binding cassette transporter ABCG2 (Homo sapiens, UniProt Q9UNQ0) (assay: TP_TRANSPORTER: uptake in BCRP-expressing PC-6 cells).
T1 sequence (Q9UNQ0 whole entry): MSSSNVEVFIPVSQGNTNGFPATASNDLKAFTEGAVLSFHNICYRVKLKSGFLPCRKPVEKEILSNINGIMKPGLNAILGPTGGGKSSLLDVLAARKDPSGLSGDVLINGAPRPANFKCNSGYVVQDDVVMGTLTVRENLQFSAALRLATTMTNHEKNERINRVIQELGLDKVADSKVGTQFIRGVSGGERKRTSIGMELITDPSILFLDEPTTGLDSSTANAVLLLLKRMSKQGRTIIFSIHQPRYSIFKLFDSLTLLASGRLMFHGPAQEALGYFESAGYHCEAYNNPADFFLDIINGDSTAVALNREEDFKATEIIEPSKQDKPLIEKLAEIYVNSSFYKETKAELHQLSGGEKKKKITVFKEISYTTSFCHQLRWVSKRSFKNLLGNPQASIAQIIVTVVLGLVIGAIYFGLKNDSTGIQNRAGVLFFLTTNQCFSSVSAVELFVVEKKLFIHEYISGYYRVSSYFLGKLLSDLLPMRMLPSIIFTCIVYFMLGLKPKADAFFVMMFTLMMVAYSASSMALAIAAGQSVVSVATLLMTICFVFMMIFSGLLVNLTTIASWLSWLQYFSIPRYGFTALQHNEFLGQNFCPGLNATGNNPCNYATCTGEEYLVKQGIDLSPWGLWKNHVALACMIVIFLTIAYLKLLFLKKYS
Assay type: functional, cell-based

SMILES | Activity
CCc1c2c(nc3cc(F)c(O)cc13)-c1cc3c(c(=O)n1C2)COC(=O)[C@]3(O)CC | substrate []
CCc1c2c(nc3cc(F)c(OC)cc13)-c1cc3c(c(=O)n1C2)COC(=O)[C@]3(O)CC | substrate []
CCc1c2c(nc3cc(O)ccc13)-c1cc3c(c(=O)n1C2)COC(=O)[C@]3(O)CC | substrate []
CCc1c2c(nc3cc(Br)ccc13)-c1cc3c(c(=O)n1C2)COC(=O)[C@]3(O)CC | substrate []
CCc1c2c(nc3ccc(Cl)cc13)-c1cc3c(c(=O)n1C2)COC(=O)[C@]3(O)CC | substrate []
CCc1c2c(nc3ccc(N)cc13)-c1cc3c(c(=O)n1C2)COC(=O)[C@]3(O)CC | substrate []
CCc1c2c(nc3ccc(O)cc13)-c1cc3c(c(=O)n1C2)COC(=O)[C@]3(O)CC [7-ETHYL-10-HYDROXYCAMPTOTHECIN] | substrate []
